The test system of one experiment is Arabidopsis plants. Put plainly: Osmotic potential measurements after ABA spray. Format: in vivo. Particulars: developing bud tissue, 20 μM ABA spray, 2 d. The method, then: Plant samples were collected in a plastic centrifuge tube filter (without membrane; Corning Costar Spin-X) and then, quick-frozen in liquid nitrogen. After thawing, the sap was collected by centrifuging at 16,000×g for 4 min to remove insoluble material. A 10-μL volume of cell sap was measured using a vapor pressure osmometer (Model 5200; Wescor). Solute concentration was converted to osmotic potential (Ψπ) using the van't Hoff law: Ψπ=−RTc, where c is the molar solute concentration (osmolality; moles kilogram-1), R is the gas constant (0.08314 L Bar mol−1 K−1), and T is the temperature in Kelvin.

The next experiment relates to SAG12-LUC expression. Put plainly: SAG12-LUC transient expression assay in Arabidopsis protoplasts. It counts as cell-based. Particulars: snrk2.2/3/6 triple-mutant protoplasts, ABA treatment. The method, then:
Assays for transient expression in protoplasts were performed as described (18). All steps were performed at room temperature. SAG12-LUC and ORE1L-LUC were used as the senescence-responsive reporters, and ZmUBQ-GUS was used as the internal control. After transfection, protoplasts were incubated in washing and incubation solution without ABA or with 5 μM ABA under light for 16 h.

The test system of experiment [1] is ORE1 and AtNAP expression. Put plainly: Quantitative RT-PCR of ORE1 and AtNAP in mature leaves after ABA. Particulars: 20 μM ABA spray. It counts as in vivo, Arabidopsis. The method, then: Northern blot and real-time PCR were performed as reported (18). For Northern blot analysis, the probe was labeled with the PCR-DIG Probe Synthesis Kit (Roche). RD29A-F (SEQ ID NO. 83) and PYL9-R (SEQ ID NO. 84) were used for the PCR. For real-time PCR, reactions were performed with iQ SYBR Green Supermix (BioRad). The primers used include SEQ ID NOs. 71 to 80. Quantitative RT-PCR was conducted on mature leaves of 4-wk-old Arabidopsis plants that were growing in soil and sprayed with 20 μM ABA.

The subject of experiment [2] is pRD29A::PYL9 transgenic plants. In words: Drought resistance of pRD29A::PYL9 transgenic Arabidopsis with ABA treatment. It counts as in vivo. Particulars: 10 μM ABA applied once after water withheld for 12 d, plants after flowering. The protocol:
Soil water content percentage during drought treatment in Arabidopsis was measured as described (27). We used 591-mL pots (48-7214; 04.00 SQ TL TW; Myers Industries) with 130 g (˜62 g oven dry weight) Fafard Super-Fine Germinating Mix Soil (Sungro Horticultures) per pot. After being saturated with water, the total weight of the wet soil was ˜440 g per pot. Pots were covered with plastic film to reduce water loss from soil surface. Three-week-old plants (four plants per pot) were subjected to drought stress by withholding water. Plants were sprayed with 2 mL 10 μM ABA plus 0.2% Tween-20 per pot after water was withheld for 12 d. Soil water content percentage was computed as total weight minus dry soil weight divided by water weight before drought according to the work (27). For drought treatment on rice, we measured the relative water content using the Soil Temperature/Moisture Meter L99-TWS-1 (Shanghai Fotel Precise Instrument Co., Ltd) following the work (40). Before drought treatment, the mixed vermiculite and sandy soil (Zhongfang Horticulture Co.) for rice was saturated with water, and the relative soil water content before drought was set as 100%. Rice plants at the four-leaf stage were subjected to drought by withholding water for 14 d, and the relative soil water content after the drought treatment was ˜20%.

The results in this text go back to patent publication US10975384B2, “PYL9 and uses thereof” (PURDUE RESEARCH FOUNDATION, priority 2015, dated 2021).

Molecules are shown by their SMILES.

Consider `CC1=CC(=O)CC(C)(C)[C@@]1(O)/C=C/C(C)=C\C(=O)O` [ABA, abscisic acid], for which, in the experiment with Arabidopsis plants, the osmotic potential result is reported as “reduced”. Also, in the experiment on SAG12-LUC expression, the SAG12-LUC expression entry is “not enhanced”. Further, the “expression of ORE1 and AtNAP” value in experiment [1] was “induced”. In addition, the drought resistance entry in experiment [2] was “significantly increased”.
